Tm/Tg data for five compounds are collected here from patent US20110027372A1, “MULTIPARTICULATES COMPRISING LOW-SOLUBILITY DRUGS AND CARRIERS THAT RESULT IN RAPID DRUG RELEASE” (priority 2005, published 2011).

A short description of the data set: Ratio of melting temperature to glass-transition temperature (Tm/Tg) of sugar alcohols. The data set is classed as physicochemical. From the text: The inventors addressed this problem by using a sugar alcohol that rapidly crystallizes, resulting in improved recovery and efficiency during the multiparticulate-formation process. Without wishing to be bound by any particular theory, it is believed that the tendency for a sugar alcohol to crystallize from an aqueous solution is characterized by the ratio of the Tm of the sugar alcohol (in K) to the glass-transition temperature for the alcohol, Tg (in K) of the sugar alcohol. The driving force for crystallization is controlled primarily by Tm, while the kinetic barrier to crystallization is controlled primarily by the Tg. The ratio, Tm/Tg (in K/K), indicates the relative propensity for a sugar alcohol to crystallize. The inventors have discovered that sugar alcohols for which the ratio of Tm in K to Tg in K is at least about 1.5 can be effectively used to make multiparticulates with the desired properties. Preferably, this Tm/Tg ratio (K/K) is at least about 1.6, and more preferably at least about 1.65. Examples of suitable sugar alcohols include mannitol (Tm=438 K; Tg=234 K; Tm/Tg=1.87) and erythritol (Tm=394 K; Tg=231 K; Tm/Tg=1.71). Mixtures of such sugar alcohols may also be used.

Each structure is given as a SMILES string.

For `OC[C@@H](O)[C@@H](O)CO` [Erythritol], the Tm/Tg is given as 1.71 K/K.
The value for `OC[C@@H](O)[C@@H](O[C@H]1O[C@H](CO)[C@@H](O)[C@H](O)[C@H]1O)[C@H](O)[C@@H](O)CO` [Maltitol] was 1.32 K/K; that for `OC[C@@H](O)[C@@H](O)[C@H](O)[C@H](O)CO` [Mannitol] was 1.87 K/K; that for `OC[C@@H](O)[C@@H](O)[C@H](O)[C@@H](O)CO` [Sorbitol] was 1.38 K/K.
Regarding `OC[C@@H](O)[C@H](O)[C@@H](O)CO` [Xylitol], the Tm/Tg was 1.46 K/K.
